Here are results for 36 compounds from ChEMBL document CHEMBL1201862, “PubChem BioAssay data set” (2004).

A short description of series [1]: Luminescence Cell-Based Dose Response HTS to Identify Activators of Luciferase Translation or Activity in H4 […] Cells. [Related pubchem assays: 1829 (Project Summary), 1814 (Primary HTS)]. In kind it is functional.
Series [2] in a line: Luminescence Cell-Based Dose Confirmation HTS to Identify Activators of 5'UTR Stem-Loop Driven Alpha-Synuclein mRNA Translation in H4 Neuroglioblastoma Cells. [Related pubchem assays: 1829 (Project Summary), 1814 (Primary HTS)]. In kind it is functional.
Another series relates to H4. Kind of series: Luminescence Cell-Based Dose Response HTS to Identify Activators of 5'UTR Stem-Loop Driven Prion Protein mRNA Translation in H4 Neuroglioblastoma Cells. [Related pubchem assays: 1829 (Project Summary), 1814 (Primary HTS)]. In kind it is functional. The conditions noted are these: Homo sapiens.
The target in series [3] is Heat shock protein HSP 90-alpha (Homo sapiens, UniProt P07900). In kind it is functional, organism-based.
In series [4] the target is T1, Cytochrome P450 2C9 (Homo sapiens, UniProt P11712).
T1 sequence (P11712 whole entry): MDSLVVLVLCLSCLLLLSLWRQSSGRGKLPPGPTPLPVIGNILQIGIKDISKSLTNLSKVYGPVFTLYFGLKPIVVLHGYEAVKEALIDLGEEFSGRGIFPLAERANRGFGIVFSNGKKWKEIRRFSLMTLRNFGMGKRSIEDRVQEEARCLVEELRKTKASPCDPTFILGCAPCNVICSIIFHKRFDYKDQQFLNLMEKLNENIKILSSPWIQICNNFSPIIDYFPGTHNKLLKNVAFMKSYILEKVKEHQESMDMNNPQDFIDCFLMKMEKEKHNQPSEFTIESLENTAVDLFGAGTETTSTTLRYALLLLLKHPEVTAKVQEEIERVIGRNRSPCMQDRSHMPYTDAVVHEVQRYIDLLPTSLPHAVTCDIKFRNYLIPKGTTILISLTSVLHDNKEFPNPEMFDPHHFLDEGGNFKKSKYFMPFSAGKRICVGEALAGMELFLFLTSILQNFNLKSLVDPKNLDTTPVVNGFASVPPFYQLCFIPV
The target of series [5] is T2, Heat shock factor protein 1 (Mus musculus, UniProt P38532).
T2 sequence (P38532 whole entry): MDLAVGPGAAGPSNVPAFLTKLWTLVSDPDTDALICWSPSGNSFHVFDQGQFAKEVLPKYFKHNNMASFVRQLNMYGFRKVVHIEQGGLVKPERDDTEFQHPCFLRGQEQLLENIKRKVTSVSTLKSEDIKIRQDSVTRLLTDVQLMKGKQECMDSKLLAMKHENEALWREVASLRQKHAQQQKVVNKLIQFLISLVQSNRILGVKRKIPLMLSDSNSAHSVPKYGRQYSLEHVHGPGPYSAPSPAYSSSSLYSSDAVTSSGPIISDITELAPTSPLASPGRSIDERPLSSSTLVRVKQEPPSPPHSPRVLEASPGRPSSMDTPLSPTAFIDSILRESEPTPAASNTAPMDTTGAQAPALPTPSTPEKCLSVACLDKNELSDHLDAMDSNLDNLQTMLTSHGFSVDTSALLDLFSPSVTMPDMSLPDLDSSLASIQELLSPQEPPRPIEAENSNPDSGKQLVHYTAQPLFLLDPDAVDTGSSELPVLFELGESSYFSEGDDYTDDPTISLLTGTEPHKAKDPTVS
Kind of series: HSF1 potentiators in luciferase reporter cells, confirmation, cell-based, NIH3T3, luminescence, dose retest (AID 435004).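 Further: stress induced by proteasome inhibitor MG132 added 30 min after compound; luciferase reporter driven by HSF1 response element in NIH3T3 cells; actives raise luminescence as potentiators of the MG132 stress response.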 The format is functional. A general note: In a reporter assay the amount or activity of a reporter protein is the signal.

Series [6] has as its target T3, Polyadenylate-binding protein 1 (Homo sapiens, UniProt P11940). Kind of series: PABP1 MLLE–PAM2 binding inhibitor potency, dose response, biochemical, fluorescence polarization, FITC-PAM2 peptide (AID 602259). In kind it is functional. The conditions noted are these: read-out: IC50_Mean. (Polarisation of emitted light reports the rotation of a fluorescent probe.)

The target of a further series is Nonstructural protein 1 (Influenza A virus, UniProt Q194T2). The format is functional, Influenza A virus (A/California/07/2009(H1N1)).
Chain of Nonstructural protein 1 (Q194T2 whole entry): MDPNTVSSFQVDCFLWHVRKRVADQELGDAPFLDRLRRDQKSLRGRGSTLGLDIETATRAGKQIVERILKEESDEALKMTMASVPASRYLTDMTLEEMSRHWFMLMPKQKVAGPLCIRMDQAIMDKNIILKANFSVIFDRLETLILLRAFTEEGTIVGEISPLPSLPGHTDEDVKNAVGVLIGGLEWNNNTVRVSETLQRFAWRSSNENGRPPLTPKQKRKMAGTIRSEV
The target in series [7] is T3, Polyadenylate-binding protein 1. Kind of series: PABP1 MLLE–PAM2 interaction inhibitors, dose response, miRNA deadenylation inhibitor project, biochemical, fluorescence polarization, Cy5-PAM2 peptide, secondary (AID 602260). The format is functional. The conditions noted are these: read-out: IC50_Mean.
Series [8] in a line: microbe, parasite or virus in culture. The format is functional. The conditions noted are these: Mycobacterium tuberculosis.
Series [9] in a line: inhibitors of intracellular T. cruzi replication, confirmation, NIH3T3 host cells, beta-gal luminescence (AID 2044).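 Further: intracellular parasites grown in NIH/3T3 mouse fibroblasts as host cells; luminescent beta-galactosidase reporter signal from transgenic T. cruzi replicating inside host cells; inhibitors lower the luminescence signal.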 In kind it is functional, cell-based.
Series [10] can be described thus: cytotoxicity toward NIH3T3 fibroblasts, dose response, counter-screen, cell-based, ATP luminescence, mouse fibroblasts (AID 2010).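 Further: cells exposed to compound for about 90 hours before reading.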 The format is functional. In general terms: A counterscreen serves to expose hits that act by an unwanted route or on another target.
A short description of series [11]: THP-1 cell cytotoxicity, dose response, cytotoxicity control for Vif-APOBEC3G degradation inhibitor project, THP-1 cells (AID 1117359). The format is functional. The conditions noted are these: Human immunodeficiency virus 1, THP-1.
Series [12] can be described thus: HEp-2 cell cytotoxicity, dose response, cytotoxicity control for RSV inhibitor project, HTS (AID 2410). In kind it is functional. The conditions noted are these: human respiratory syncytial virus.
In another series the test system is Streptococcus. Kind of series: Group A Streptococcus viability loss, dose response, counter-screen for streptokinase expression inhibitor project, luminescence, BacTiterGlo (AID 1915).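 Further: potency for reduction of bacterial viability or growth.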 In kind it is functional, organism-based.
The subject of series [13] is Streptococcus sp. 'group A'. Kind of series: growth inhibition of control SK(-) GAS strain, dose response, counter-screen for streptokinase expression inhibitor project, luminescence, kanamycin, BacTiterGlo, confirmation (AID 1900). The format is functional, organism-based.
Series [14] deals with T4, Rac GTPase-activating protein 1 (Homo sapiens, UniProt Q9H0H5).
T4 sequence (Q9H0H5 whole entry): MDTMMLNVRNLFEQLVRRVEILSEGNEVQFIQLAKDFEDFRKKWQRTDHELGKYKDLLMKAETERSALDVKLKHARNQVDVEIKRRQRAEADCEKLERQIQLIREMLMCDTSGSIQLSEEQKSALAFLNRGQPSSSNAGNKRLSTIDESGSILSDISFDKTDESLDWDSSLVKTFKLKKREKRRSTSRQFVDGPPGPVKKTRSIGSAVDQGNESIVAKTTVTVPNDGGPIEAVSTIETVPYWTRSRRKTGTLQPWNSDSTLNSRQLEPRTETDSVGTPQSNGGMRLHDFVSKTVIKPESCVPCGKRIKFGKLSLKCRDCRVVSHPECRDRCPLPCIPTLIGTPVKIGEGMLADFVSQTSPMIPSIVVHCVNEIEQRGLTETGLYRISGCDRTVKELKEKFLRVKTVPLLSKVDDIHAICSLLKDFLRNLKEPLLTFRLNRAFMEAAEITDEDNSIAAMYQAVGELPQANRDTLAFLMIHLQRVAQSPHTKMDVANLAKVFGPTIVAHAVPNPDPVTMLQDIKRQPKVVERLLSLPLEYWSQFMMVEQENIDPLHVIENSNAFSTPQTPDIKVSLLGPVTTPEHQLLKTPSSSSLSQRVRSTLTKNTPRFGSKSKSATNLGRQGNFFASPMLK
Kind of series: MgcRacGAP GTPase-activating activity inhibitors, confirmation, biochemical, ADP Hunter fluorescence, primary and confirmatory (AID 624330). In kind it is functional.

The nature of series [15]: HeLa cell cytotoxicity, dose response, cytotoxicity control for MgcRacGAP inhibitor project (AID 624300). In kind it is functional.
For series [16], the target named is FAD-linked sulfhydryl oxidase ALR (Homo sapiens, UniProt P55789). Kind of series: inhibitors of human ALR sulfhydryl oxidase, dose response, biochemical, H2O2 detection, luminescence, cherry-pick (AID 493248).
Chain of FAD-linked sulfhydryl oxidase ALR (P55789 whole entry): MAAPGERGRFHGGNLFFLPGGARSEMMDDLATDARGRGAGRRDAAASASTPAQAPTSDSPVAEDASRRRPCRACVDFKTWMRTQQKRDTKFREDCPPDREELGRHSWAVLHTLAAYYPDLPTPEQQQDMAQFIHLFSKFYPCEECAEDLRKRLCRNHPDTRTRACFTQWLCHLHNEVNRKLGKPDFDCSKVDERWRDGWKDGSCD
The target in series [17] is T1, Cytochrome P450 2C9. The source holds these as a separate data set.

Molecules are shown by their SMILES. Activity calls are given as the source filed them.

In general, EC50 refers to the concentration at which the effect is half-maximal. One may read the AC50 as the concentration giving half of the maximal activity seen.

T3 sequence (P11940 whole entry): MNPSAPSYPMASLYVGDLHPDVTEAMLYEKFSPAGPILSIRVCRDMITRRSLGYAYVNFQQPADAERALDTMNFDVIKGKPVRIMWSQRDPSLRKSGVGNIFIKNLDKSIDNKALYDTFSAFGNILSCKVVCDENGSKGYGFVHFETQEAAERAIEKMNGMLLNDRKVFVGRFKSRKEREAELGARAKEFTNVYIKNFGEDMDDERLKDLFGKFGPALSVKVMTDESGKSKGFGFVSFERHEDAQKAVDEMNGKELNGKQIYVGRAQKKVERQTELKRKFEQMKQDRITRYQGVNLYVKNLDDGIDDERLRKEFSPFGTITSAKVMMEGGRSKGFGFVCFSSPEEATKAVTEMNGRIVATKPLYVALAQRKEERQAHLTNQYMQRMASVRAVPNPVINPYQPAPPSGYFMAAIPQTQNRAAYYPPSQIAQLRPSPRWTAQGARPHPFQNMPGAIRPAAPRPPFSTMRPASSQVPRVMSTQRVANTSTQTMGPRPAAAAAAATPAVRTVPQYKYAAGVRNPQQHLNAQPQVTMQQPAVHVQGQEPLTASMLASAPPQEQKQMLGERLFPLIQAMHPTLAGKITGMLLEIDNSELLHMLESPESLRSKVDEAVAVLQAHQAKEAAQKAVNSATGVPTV

Consider `COc1cccc(-c2nc3n(n2)C(c2ccc4c(c2)OCO4)C(C(N)=O)=C(C)N3)c1` (stereo not given), for which the EC50 in [1] is 31.6 µM (active); in series [2] it was 12.4 µM (active); in the series with H4, > 120 µM (not active).
Regarding `Cc1ccc(C(=O)ONC(=O)c2ccc(Cl)cc2)cc1[N+](=O)[O-]`, the AC50 in series [3] was 4.03 µM (active).
As for `COc1ccc(CNc2ncncc2-c2cccnc2)c(OC)c1`, at Cytochrome P450 2C9 [4], the AC50 entry was “inconclusive”.
On to `CCOC(=O)C1CCCN(C(=O)c2sc3nc(C)nc(N(CC)CC)c3c2C)C1` (stereo not given), for which, in series [5], the EC50 is > 260 µM (inactive).
Regarding `NC(=O)NC(=O)CC1SC(NN=C2CSC(=O)N2)=NC1=O` (stereo not given), the IC50 was > 66 µM (inactive) in [6], 7.54 µM (active) at Nonstructural protein 1 and > 66 µM (inactive) in series [7].
As for `CCCCC(=O)NN/C=C1\C(=O)NC(=O)N(Cc2ccco2)C1=O`, the IC50 on Nonstructural protein 1 is 13.7 µM (active).
Take `CCCCCCCCn1cnc2c(N)c(C)c(C)cc21`: the CC50 in series [8] was > 40 µM (active).
For `COC(=O)/C=C1/N=C(Nc2nc(C)cc(C)n2)N(c2ccc(C)c(C)c2)C1=O`, the EC50 in series [5] is > 260 µM (inactive).
For the compound `COc1ccc(NC(=O)C(=O)NCC(c2ccco2)N2CCc3ccccc3C2)cc1` (stereo not given), the CC50 in series [8] was > 40 µM (active).
Regarding `CC(C)(C)C(=O)NCC12C=CC(O1)C1C(=O)N(c3ccccc3)C(=O)C12` (stereo not given), the EC50 in series [5] was > 260 µM (inactive). In addition, the AC50 in [3] is 8.25 µM (active).
As to `COc1ccc(NC(=O)c2sccc2SCc2cccc(C(F)(F)F)c2)cc1`, the values for the EC50 in series [9], in series [5] and in series [10] were 2.61 µM (active), > 260 µM (inactive) and > 60 µM (not active), respectively.
For `CC(=O)c1c(C)[n+]([O-])c2cc(F)c(F)cc2[n+]1[O-]`, the CC50 in [8] was 35.4 µM (active).
On to `COc1ccc(-c2cc(=Nc3ccccc3)c3cc(C)ccc3o2)cc1.[O-][Cl+3]([O-])([O-])O`, for which the EC50 was 10.3 µM (active) in series [1], 12.7 µM (active) in series [2] and 9.82 µM (active) with H4.
As to `Cc1ccc(S(=O)(=O)N(C)c2ccccc2C(=O)N2CCCC2)cc1`, the CC50 in series [11] was > 40 µM (active).
For `Sc1nnc(-c2cc[nH]n2)n1-c1ccccc1Cl`, the values for the EC50 (in series [1]; in [2]; with H4) were 24.1 µM (active), 12.7 µM (active) and 19.3 µM (active), respectively.
The matching figures for `CC(C)c1cc(C(=O)Nc2cc(Br)ccc2O)no1`: > 120 µM (not active), 14 µM (active) and > 120 µM (not active).
For `COc1ccc(CNC(=O)Cn2cccc2C(=O)c2ccccc2C)cc1` the same measures were 10.2 µM (active), 10.3 µM (active) and 16.8 µM (active).
As to `CCCn1c(C2CCCN2c2nc(-c3cccc(Br)c3)cs2)nc2ccccc21` (stereo not given), in series [12], the CC50 was 20.9 µM (active). Moreover, the EC50 in series [1] is 32.7 µM (active); in series [2], 5.7 µM (active); with H4, > 120 µM (not active).
On to `CN(C)/C=C/C(=O)/C=C/c1cn(-c2ncc(C(F)(F)F)cc2Cl)c2ccccc12`, for which, in [3], the half-maximal activity concentration (AC50) was 2.9 µM (active).
Take `CCCCCCC(=O)N(O)C1CC(=O)N(c2ccc(C)cc2)C1=O` (stereo not given): the IC50 in series [6] and in series [7] was > 66 µM (inactive) throughout. The AC50 in series [3] is 1.43 µM (active).
For `O=C(NC(=S)NNC(=O)c1ccccc1O)c1ccccc1`, the IC50 on Nonstructural protein 1 was 14.2 µM (active). Moreover, the EC50 with Streptococcus was 8.1 µM (active); in [13], 2.04 µM (active).
For `C(=C\n1nnc2ccccc21)/c1ccc[nH]1`, the EC50 in series [1] was 9.95 µM (active); in series [2], 28.4 µM (active); in the series with H4, 32 µM (active).
As for `O=C(C1CC1)N1CCCC(c2ccc(Cl)cc2)=N1`, the CC50 in [8] is > 40 µM (active).
As to `Cc1ccc(C(=N)NOC(=O)N2c3ccccc3Sc3ccccc32)cc1`, the values for the CC50 in series [8] and in [15] were > 40 µM (active) and 96.4 µM (active), respectively. For the same compound, the IC50 in series [14] is 134 µM (active).
Regarding `Cn1c(-c2cccc([N+](=O)[O-])c2)cnc1NCc1cccc([N+](=O)[O-])c1`, the CC50 in series [15] was 100 µM (active).
For the compound `CCC(=O)N1N=C(c2ccc(NS(C)(=O)=O)cc2)CC1c1ccc(C)cc1` (stereo not given), the CC50 in series [11] was > 40 µM (active).
As for `CCc1ccc(S(=O)(=O)N(C(=O)c2ccncc2)c2ccc(OC(=O)c3ccncc3)cc2)cc1`, in series [3], the half-maximal activity concentration (AC50) was 1.03 µM (active).
For `CCCCN=C(S)NNC(=O)c1csc2ccccc12`, the EC50 in [5] was > 260 µM (inactive).
Consider `CC1=CC2OC3CC4OC(=O)C=CC=CC(=O)OCCC(C)C(O)C(=O)OCC2(CC1)C4(C)C31CO1` (stereo not given), for which the AC50 in [3] is < 0.195 µM (active).
In the case of `CCCCOc1ccc(C(=O)N/N=C/c2c[nH]nc2-c2ccc(OC)c(OC)c2)cc1`, in series [5], the EC50 is > 260 µM (inactive).
For `CCOC(=O)c1c(C)c(/C=N/Nc2ccccc2)n(C)c1C`, in series [11], the CC50 is > 40 µM (active).
For the compound `Sc1nnc(-c2ccco2)n1/N=C/c1cccc(Cl)c1Cl`, in series [16], the AC50 is 4.84 µM (active). Moreover, the IC50 in series [14] is 95.7 µM (active). Also, the CC50 in series [15] was 96.5 µM (active).
Take `O=[N+]([O-])c1ccc(/C=N/c2ccc(Cl)cc2Cl)s1`: the figures for the AC50 (at Cytochrome P450 2C9 [17]; in series [3]) were 2.24 µM (inconclusive) and 7.83 µM (active), respectively.
Take `O=C(N/N=C/c1ccccc1O)C1SCCCS1`: the IC50 on Nonstructural protein 1 was 35.6 µM (active).
Turning to `O=C(CCCN1CC=C(n2c(=O)[nH]c3ccccc32)CC1)c1ccc(F)cc1` [DROPERIDOL], the AC50 entry on Cytochrome P450 2C9 [4] is “inconclusive”.
Consider `Cc1cc(O)c2c(c1)C(=O)c1cc(O)cc(O)c1C2=O` [EMODIN], for which, in [8], the CC50 was 20.1 µM (active).
